The values below come from patent US8329706B2, “Oxazolidinone derivatives” (Actelion Pharmaceuticals Ltd., priority 2009, dated 2012).

In one test the target is T1, human orexin-2 receptor (Homo sapiens, UniProt O43614).
T1 construct: expressed in transfected cells; host or cells: CHO cells (G418 selection)
T1 sequence (O43614 1-444): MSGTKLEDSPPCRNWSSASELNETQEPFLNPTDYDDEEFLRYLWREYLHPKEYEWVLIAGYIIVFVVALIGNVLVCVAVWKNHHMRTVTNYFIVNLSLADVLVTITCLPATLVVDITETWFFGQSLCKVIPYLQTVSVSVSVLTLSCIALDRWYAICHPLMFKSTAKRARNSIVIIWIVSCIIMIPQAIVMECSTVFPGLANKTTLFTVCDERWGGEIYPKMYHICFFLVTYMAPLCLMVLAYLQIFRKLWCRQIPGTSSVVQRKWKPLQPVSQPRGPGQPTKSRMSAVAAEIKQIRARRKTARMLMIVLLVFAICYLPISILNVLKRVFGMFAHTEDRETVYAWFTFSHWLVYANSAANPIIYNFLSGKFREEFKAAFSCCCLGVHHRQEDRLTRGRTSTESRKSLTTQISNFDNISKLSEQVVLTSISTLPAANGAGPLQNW
As to the kind of experiment: FLIPR intracellular calcium assay, orexin receptor antagonistic activity (OX2). Type of test: cell-based. As to conditions: CHO cells expressing human orexin-2 receptor; agonist 3 nM orexin-A; normalized to on-plate reference; * geomean n = 5, *2 geomean n = 2. On the procedure:
(§1) The orexin receptor antagonistic activity of the compounds of formula (I) is determined in accordance with the following experimental method.
(§2) Chinese hamster ovary (CHO) cells expressing the human orexin-1 receptor and the human orexin-2 receptor, respectively, are grown in culture medium (Ham F-12 with L-Glutamine) containing 300 μg/ml G418, 100 U/ml penicillin, 100 μg/ml streptomycin and 10% heat inactivated fetal calf serum (FCS). The cells are seeded at 20′000 cells/well into 384-well black clear bottom sterile plates (Greiner). The seeded plates are incubated overnight at 37° C. in 5% CO2.
(§3) Human orexin-A as an agonist is prepared as 1 mM stock solution in MeOH:water (1:1), diluted in HBSS containing 0.1% bovine serum albumin (BSA), NaHCO3: 0.375 g/l and 20 mM HEPES for use in the assay at a final concentration of 3 nM.
(§4) Antagonists are prepared as 10 mM stock solution in DMSO, then diluted in 384-well plates using DMSO followed by a transfer of the dilutions into in HBSS containing 0.1% bovine serum albumin (BSA), NaHCO3: 0.375 g/l and 20 mM HEPES. On the day of the assay, 50 μl of staining buffer (HBSS containing 1% FCS, 20 mM HEPES, NaHCO3: 0.375 g/l, 5 mM probenecid (Sigma) and 3 μM of the fluorescent calcium indicator fluo-4 AM (1 mM stock solution in DMSO, containing 10% pluronic) is added to each well. The 384-well cell-plates are incubated for 50 min at 37° C. in 5% CO2 followed by equilibration at rt for 30-120 min before measurement.
(§5) Within the Fluorescent Imaging Plate Reader (FLIPR Tetra, Molecular Devices), antagonists are added to the plate in a volume of 10 μl/well, incubated for 10 min and finally 10 μl/well of agonist is added. Fluorescence is measured for each well at 1 second intervals, and the height of each fluorescence peak is compared to the height of the fluorescence peak induced by 3 nM orexin-A with vehicle in place of antagonist. For each antagonist, the IC50 value (the concentration of compound needed to inhibit 50% of the agonistic response) is determined and normalized using the obtained IC50 value of a on-plate reference compound. Optimized conditions were achieved by adjustment of pipetting speed and cell splitting regime. The calculated IC50 values of the compounds may fluctuate depending on the daily cellular assay performance. Fluctuations of this kind are known to those skilled in the art.

The target in the next test is T2, human orexin-1 receptor (Homo sapiens, UniProt O43613).
T2 construct: expressed in transfected cells; host or cells: CHO cells (G418 selection)
T2 sequence (O43613 1-425): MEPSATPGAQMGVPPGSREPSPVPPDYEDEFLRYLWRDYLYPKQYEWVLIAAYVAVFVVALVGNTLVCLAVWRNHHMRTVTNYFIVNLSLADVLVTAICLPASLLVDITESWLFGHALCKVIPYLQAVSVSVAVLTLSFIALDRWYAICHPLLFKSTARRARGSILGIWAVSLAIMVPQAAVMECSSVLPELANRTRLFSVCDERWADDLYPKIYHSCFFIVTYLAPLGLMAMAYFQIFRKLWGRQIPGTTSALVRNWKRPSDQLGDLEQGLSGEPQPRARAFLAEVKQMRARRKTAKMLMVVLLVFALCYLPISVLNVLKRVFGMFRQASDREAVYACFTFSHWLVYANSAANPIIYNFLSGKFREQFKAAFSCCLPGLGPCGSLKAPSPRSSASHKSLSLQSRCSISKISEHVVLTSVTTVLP
As to the kind of experiment: FLIPR intracellular calcium assay, orexin receptor antagonistic activity (OX1). Type of test: cell-based. As to conditions: CHO cells expressing human orexin-1 receptor; agonist 3 nM orexin-A; normalized to on-plate reference; * geomean n = 5, *2 geomean n = 2. How it is done: as §1, §2, §3, §4, §5

Consider `CCCOc1ccc(CN2C(=O)COC2c2c(OC)cccc2OC)cc1` (stereo not drawn) [Example 54, 2-(2,6-Dimethoxy-phenyl)-3-(4-propoxy-benzyl)-oxazolidin-4-one], for which the IC50 turned out to be 81 nM at human orexin-2 receptor and 1710 nM at human orexin-1 receptor.

`COc1cccc(OC)c1C1O[C@H](C)C(=O)N1Cc1ccc(OC(F)(F)F)c(F)c1` (stereo partly drawn) [Example 55, 2-(2,6-Dimethoxy-phenyl)-3-(3-fluoro-4-trifluoromethoxy-benzyl)-(R)-5-methyl-oxazolidin-4-one]: the IC50 on human orexin-2 receptor came out at 108 nM; on human orexin-1 receptor, 178 nM.

Turning to `COc1cccc(OC)c1C1O[C@H](C)C(=O)N1Cc1ccc(OC(F)(F)F)c(Cl)c1` (stereo partly drawn) [Example 56, 3-(3-Chloro-4-trifluoromethoxy-benzyl)-2-(2,6-dimethoxy-phenyl)-(R)-5-methyl-oxazolidin-4-one], the figures for the IC50 on human orexin-2 receptor and at human orexin-1 receptor were 111 nM and 164 nM, respectively.

For the molecule `COc1cccc(OC)c1C1OC(C)(C)C(=O)N1Cc1ccc2ccccc2c1` (stereo not drawn) [Example 57, 2-(2,6-Dimethoxy-phenyl)-5,5-dimethyl-3-naphthalen-2-ylmethyl-oxazolidin-4-one], the IC50 on human orexin-2 receptor stood at 151 nM; at human orexin-1 receptor it was 5 nM.

`COc1cccc(OC)c1C1OC(C)(C)C(=O)N1Cc1ccc(OC(F)(F)F)c(Cl)c1` (stereo not drawn) [Example 58, 3-(3-Chloro-4-trifluoromethoxy-benzyl)-2-(2,6-dimethoxy-phenyl)-5,5-dimethyl-oxazolidin-4-one]: the values for the IC50 at human orexin-2 receptor and on human orexin-1 receptor were 133 nM and 25 nM, respectively.

For `COc1cccc(OC)c1C1O[C@@H](C)C(=O)N1Cc1ccc(Oc2ccccc2)cc1` (stereo partly drawn) [Example 59, 2-(2,6-Dimethoxy-phenyl)-(S)-5-methyl-3-(4-phenoxy-benzyl)-oxazolidin-4-one], the IC50 on human orexin-2 receptor amounted to 150 nM; on human orexin-1 receptor, 2130 nM.

With `COc1cccc(OC)c1C1OCC(=O)N1Cc1ccc(OC(C)C)cc1` (stereo not drawn) [Example 60, 2-(2,6-Dimethoxy-phenyl)-3-(4-isopropoxy-benzyl)-oxazolidin-4-one], the IC50 at human orexin-2 receptor was determined as 159 nM; at human orexin-1 receptor it was 3240 nM.

With `COc1cccc(OC)c1C1OC(C)(C)C(=O)N1Cc1ccc(OC(F)(F)F)cc1` (stereo not drawn) [Example 61, 2-(2,6-Dimethoxy-phenyl)-5,5-dimethyl-3-(4-trifluoromethoxy-benzyl)-oxazolidin-4-one], the IC50 on human orexin-2 receptor was 160 nM; on human orexin-1 receptor, 29 nM.

Turning to `COc1cccc(OC)c1C1O[C@H](C)C(=O)N1Cc1nc2ccccc2s1` (stereo partly drawn) [Example 62, 3-Benzothiazol-2-ylmethyl-2-(2,6-dimethoxy-phenyl)-(R)-5-methyl-oxazolidin-4-one], the IC50 at human orexin-2 receptor came out at 193 nM; on human orexin-1 receptor, 2870 nM.

Consider `COc1cccc(OC)c1C1O[C@H](C)C(=O)N1Cc1ccc(OC(F)(F)F)cc1` (stereo partly drawn) [Example 63, 2-(2,6-Dimethoxy-phenyl)-(R)-5-methyl-3-(4-trifluoromethoxy-benzyl)-oxazolidin-4-one], for which the IC50 stood at 216 nM on human orexin-2 receptor and 260 nM at human orexin-1 receptor.

For `COc1cccc(OC)c1C1OC(C)(C)C(=O)N1Cc1nc2ccccc2s1` (stereo not drawn) [Example 64, 3-Benzothiazol-2-ylmethyl-2-(2,6-dimethoxy-phenyl)-5,5-dimethyl-oxazolidin-4-one], the IC50 is 222 nM at human orexin-2 receptor and 411 nM at human orexin-1 receptor.

On to `COc1cccc(OC)c1C1OCC(=O)N1Cc1ccc(OCC2CC2)cc1` (stereo not drawn) [Example 65, 3-(4-Cyclopropylmethoxy-benzyl)-2-(2,6-dimethoxy-phenyl)-oxazolidin-4-one], for which the values for the IC50 at human orexin-2 receptor and at human orexin-1 receptor were 243 nM and 6320 nM, respectively.

In the case of `COc1cccc(OC)c1C1O[C@@H](C)C(=O)N1Cc1ccc2ccccc2c1` (stereo partly drawn) [Example 66, 2-(2,6-Dimethoxy-phenyl)-(S)-5-methyl-3-naphthalen-2-ylmethyl-oxazolidin-4-one], the IC50 at human orexin-2 receptor is 266 nM; at human orexin-1 receptor, 421 nM.

With `COc1cccc(OC)c1C1OC(C)(C)C(=O)N1Cc1ccc(OC(F)(F)F)c(F)c1` (stereo not drawn) [Example 67, 2-(2,6-Dimethoxy-phenyl)-3-(3-fluoro-4-trifluoromethoxy-benzyl)-5,5-dimethyl-oxazolidin-4-one], the IC50 at human orexin-2 receptor was 322 nM; at human orexin-1 receptor, 25 nM.

As for `COc1cccc(OC)c1C1OC(C)(C)C(=O)N1Cc1nc2ccccc2o1` (stereo not drawn) [Example 68, 3-Benzooxazol-2-ylmethyl-2-(2,6-dimethoxy-phenyl)-5,5-dimethyl-oxazolidin-4-one], the values for the IC50 at human orexin-2 receptor and on human orexin-1 receptor were 508 nM and 2940 nM, respectively.

In the case of `COc1cccc(OC)c1C1OC(C)(C)C(=O)N1Cc1ccc(OC(F)F)cc1` (stereo not drawn) [Example 69, 3-(4-Difluoromethoxy-benzyl)-2-(2,6-dimethoxy-phenyl)-5,5-dimethyl-oxazolidin-4-one], the results for the IC50 on human orexin-2 receptor and at human orexin-1 receptor were 928 nM and 187 nM, respectively.

Turning to `COc1cccc(OC)c1C1OC(C)(C)C(=O)N1Cc1nc2ccccc2n1C` (stereo not drawn) [Example 70, 2-(2,6-Dimethoxy-phenyl)-5,5-dimethyl-3-(1-methyl-1H-benzoimidazol-2-ylmethyl)-oxazolidin-4-one], the IC50 at human orexin-2 receptor came to 1300 nM; at human orexin-1 receptor it was 65 nM.

In the case of `COc1cccc(OC)c1C1OC(C)(C)C(=O)N1Cc1ccc2c(c1)OCO2` (stereo not drawn) [Example 71, 3-Benzo[1,3]dioxol-5-ylmethyl-2-(2,6-dimethoxy-phenyl)-5,5-dimethyl-oxazolidin-4-one], the figures for the IC50 at human orexin-2 receptor and at human orexin-1 receptor were 1660 nM and 150 nM, respectively.

As for `COc1ccc(CN2C(=O)C(C)(C)OC2c2c(OC)cccc2OC)cc1` (stereo not drawn) [Example 72, 2-(2,6-Dimethoxy-phenyl)-3-(4-methoxy-benzyl)-5,5-dimethyl-oxazolidin-4-one], the IC50 at human orexin-2 receptor was determined as 2270 nM; on human orexin-1 receptor, 188 nM.

As to `CCCOc1ccc(CN2C(=O)[C@@H](C)OC2c2c(OC)cccc2OC)cc1` (stereo partly drawn) [Example 73, 2-(2,6-Dimethoxy-phenyl)-(R)-5-methyl-3-(4-propoxy-benzyl)-oxazolidin-4-one], the IC50 on human orexin-2 receptor stood at 86 nM; at human orexin-1 receptor, 581 nM.

For `COc1cccc(OC)c1C1O[C@H](C)C(=O)N1Cc1ccc(OC(C)C)cc1` (stereo partly drawn) [Example 74, 2-(2,6-Dimethoxy-phenyl)-3-(4-isopropoxy-benzyl)-(R)-5-methyl-oxazolidin-4-one], the figures for the IC50 on human orexin-2 receptor and at human orexin-1 receptor were 95 nM and 1210 nM, respectively.

Regarding `COc1cccc(OC)c1C1O[C@H](C)C(=O)N1Cc1ccc(OCC2CC2)cc1` (stereo partly drawn) [Example 75, 3-(4-Cyclopropylmethoxy-benzyl)-2-(2,6-dimethoxy-phenyl)-(R)-5-methyl-oxazolidin-4-one], the IC50 at human orexin-2 receptor was 123 nM; on human orexin-1 receptor, 1760 nM.

With `COc1cccc(OC)c1C1OC(C)(C)C(=O)N1Cc1ccc(OC(C)C)cc1` (stereo not drawn) [Example 76, 2-(2,6-Dimethoxy-phenyl)-3-(4-isopropoxy-benzyl)-5,5-dimethyl-oxazolidin-4-one], the IC50 at human orexin-2 receptor came out at 193 nM; on human orexin-1 receptor it was 114 nM.

In the case of `CCCOc1ccc(CN2C(=O)C(C)(C)OC2c2c(OC)cccc2OC)cc1` (stereo not drawn) [Example 77, 2-(2,6-Dimethoxy-phenyl)-5,5-dimethyl-3-(4-propoxy-benzyl)-oxazolidin-4-one], the IC50 on human orexin-2 receptor worked out at 484 nM; on human orexin-1 receptor, 114 nM.
